Reference: ChEMBL document CHEMBL4602719, “Discovery of Potent, Selective, and Orally Bioavailable Inhibitors of USP7 with In Vivo Antitumor Activity” (J Med Chem, 2020)

Tests used:
[1] = biological target: Ubiquitin carboxyl-terminal hydrolase isozyme L1 (Homo sapiens, UniProt P09936); assay: Inhibition of human 6His-tagged UCHL1 expressed in Escherichia coli assessed as cleavage of Ubiquitin-Rhodamine110-glycine to Ubiquitin and Rhodamine110-glycine using Ubiquitin-Rhodamine110-glycine as substrate by fluorescence based analysis
[2] = biological target: Ubiquitin carboxyl-terminal hydrolase 2 (Homo sapiens, UniProt O75604); assay: Inhibition of human GST-tagged USP2 isoform 4 expressed in Escherichia coli assessed as cleavage of Ubiquitin-Rhodamine110-glycine to Ubiquitin and Rhodamine110-glycine using Ubiquitin-Rhodamine110-glycine as substrate by fluorescence based analysis
[3] = biological target: Ubiquitin carboxyl-terminal hydrolase 27 (Homo sapiens, UniProt A6NNY8); assay: Inhibition of human DAC-tagged USP27X expressed in Escherichia coli assessed as cleavage of […]-linked di-ubiquitin to mono-ubiquitin using di-ubiquitin as substrate by mass spectrometry
AMSH-like protease = AMSH-like protease (Homo sapiens, UniProt Q96FJ0); assay: Inhibition of human GST-tagged AMSH-LP CD (264 to 436 residues) expressed in Escherichia coli assessed as cleavage of Ubiquitin-Rhodamine110-glycine to Ubiquitin and Rhodamine110-glycine using Ubiquitin-Rhodamine110-glycine as substrate by fluorescence based analysis
Deubiquitinase OTUD6B = Deubiquitinase OTUD6B (Homo sapiens, UniProt Q8N6M0); assay: Inhibition of human GST-tagged OTUD6B expressed in Escherichia coli assessed as cleavage of Ubiquitin-Rhodamine110-glycine to Ubiquitin and Rhodamine110-glycine using Ubiquitin-Rhodamine110-glycine as substrate by fluorescence based analysis
[4] = biological target: Ubiquitin thioesterase OTUB2 (Homo sapiens, UniProt Q96DC9); assay: Inhibition of human GST-tagged OTUB2 expressed in Escherichia coli assessed as cleavage of Ubiquitin-Rhodamine110-glycine to Ubiquitin and Rhodamine110-glycine using Ubiquitin-Rhodamine110-glycine as substrate by fluorescence based analysis
[5] = biological target: OTU domain-containing protein 6A (Homo sapiens, UniProt Q7L8S5); assay: Inhibition of human His6-tagged OTUD6A expressed in Escherichia coli assessed as cleavage of Ubiquitin-Rhodamine110-glycine to Ubiquitin and Rhodamine110-glycine using Ubiquitin-Rhodamine110-glycine as substrate by fluorescence based analysis
Ataxin-3 = Ataxin-3 (Homo sapiens, UniProt P54252); assay: Inhibition of human GST-tagged Ataxin-3 expressed in Escherichia coli assessed as cleavage of Ubiquitin-Rhodamine110-glycine to Ubiquitin and Rhodamine110-glycine using Ubiquitin-Rhodamine110-glycine as substrate by fluorescence based analysis
Josephin-2 = Josephin-2 (Homo sapiens, UniProt Q8TAC2); assay: Inhibition of human 6His-tagged JOSD2 expressed in Escherichia coli assessed as cleavage of Ubiquitin-Rhodamine110-glycine to Ubiquitin and Rhodamine110-glycine using Ubiquitin-Rhodamine110-glycine as substrate by fluorescence based analysis
Cytochrome P450 3A4 = Cytochrome P450 3A4 (Homo sapiens, UniProt P08684); assay: Inhibition of CYP3A4 (unknown origin); type: ADME
[6] = biological target: Ubiquitin carboxyl-terminal hydrolase 21 (Homo sapiens, UniProt Q9UK80); assay: Inhibition of human GST-tagged USP21 CD (196 to 565 residues) expressed in Escherichia coli assessed as cleavage of Ubiquitin-Rhodamine110-glycine to Ubiquitin and Rhodamine110-glycine using Ubiquitin-Rhodamine110-glycine as substrate by fluorescence based analysis
[7] = biological target: Ubiquitin carboxyl-terminal hydrolase 9X (Homo sapiens, UniProt Q93008); assay: Inhibition of human GST-tagged USP9X CD (1554 to 1995 residues) expressed in Escherichia coli assessed as cleavage of Ubiquitin-Rhodamine110-glycine to Ubiquitin and Rhodamine110-glycine using Ubiquitin-Rhodamine110-glycine as substrate by fluorescence based analysis
[8] = biological target: Ubiquitin carboxyl-terminal hydrolase 15 (Homo sapiens, UniProt Q9Y4E8); assay: Inhibition of human USP15 isoform 2 expressed in Escherichia coli assessed as cleavage of Ubiquitin-Rhodamine110-glycine to Ubiquitin and Rhodamine110-glycine using Ubiquitin-Rhodamine110-glycine as substrate by fluorescence based analysis
Homo sapiens = species on record: Homo sapiens; assay: Selectivity index, ratio of IC50 for human GST-tagged VCPIP CD (25 to 561 residues) expressed in Escherichia coli assessed as cleavage of Ubiquitin-Rhodamine110-glycine to Ubiquitin and Rhodamine110-glycine using Ubiquitin-Rhodamine110-glycine as substrate by fluorescence based analysis to IC50 for inhibition of recombinant full length USP7 (unknown origin) using ubiquintin-rhodamine as substrate preincubated for 30 mins followed by substrate addition measured after 1 hr by fluorescence-based Envision plate reader assay
[9] = biological target: Ubiquitin carboxyl-terminal hydrolase 7 (Homo sapiens, UniProt Q93009); assay: Inhibition of recombinant full length USP7 (unknown origin) using ubiquintin-rhodamine as substrate preincubated for 30 mins followed by substrate addition measured after 1 hr by fluorescence-based Envision plate reader assay
[10] = biological target: OTU domain-containing protein 7B (Homo sapiens, UniProt Q6GQQ9); assay: Inhibition of cezanne (unknown origin)
[11] = Inhibition of human GST-tagged OTUD5 P177S mutant expressed in Escherichia coli assessed as cleavage of Ubiquitin-Rhodamine110-glycine to Ubiquitin and Rhodamine110-glycine using Ubiquitin-Rhodamine110-glycine as substrate by fluorescence based analysis
[12] = biological target: Ubiquitin thioesterase OTU1 (Homo sapiens, UniProt Q5VVQ6); assay: Inhibition of human GST-tagged OTU1 expressed in Escherichia coli assessed as cleavage of Ubiquitin-Rhodamine110-glycine to Ubiquitin and Rhodamine110-glycine using Ubiquitin-Rhodamine110-glycine as substrate by fluorescence based analysis
[13] = biological target: Ubiquitin carboxyl-terminal hydrolase 36 (Homo sapiens, UniProt Q9P275); assay: Inhibition of human GST-tagged USP36 CD (81 to 461 residues) expressed in Escherichia coli assessed as cleavage of Ubiquitin-Rhodamine110-glycine to Ubiquitin and Rhodamine110-glycine using Ubiquitin-Rhodamine110-glycine as substrate by fluorescence based analysis

Chain of Deubiquitinase OTUD6B (Q8N6M0 whole entry): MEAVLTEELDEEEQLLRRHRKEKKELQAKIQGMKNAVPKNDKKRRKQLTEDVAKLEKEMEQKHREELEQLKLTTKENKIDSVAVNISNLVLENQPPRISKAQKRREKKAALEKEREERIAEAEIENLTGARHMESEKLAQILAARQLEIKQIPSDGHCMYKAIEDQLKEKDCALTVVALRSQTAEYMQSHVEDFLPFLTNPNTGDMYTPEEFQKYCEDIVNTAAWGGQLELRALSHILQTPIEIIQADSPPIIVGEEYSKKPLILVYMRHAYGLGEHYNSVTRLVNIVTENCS
Chain of Ubiquitin carboxyl-terminal hydrolase 9X (Q93008 whole entry, the tested form may be a part, canonical isoform): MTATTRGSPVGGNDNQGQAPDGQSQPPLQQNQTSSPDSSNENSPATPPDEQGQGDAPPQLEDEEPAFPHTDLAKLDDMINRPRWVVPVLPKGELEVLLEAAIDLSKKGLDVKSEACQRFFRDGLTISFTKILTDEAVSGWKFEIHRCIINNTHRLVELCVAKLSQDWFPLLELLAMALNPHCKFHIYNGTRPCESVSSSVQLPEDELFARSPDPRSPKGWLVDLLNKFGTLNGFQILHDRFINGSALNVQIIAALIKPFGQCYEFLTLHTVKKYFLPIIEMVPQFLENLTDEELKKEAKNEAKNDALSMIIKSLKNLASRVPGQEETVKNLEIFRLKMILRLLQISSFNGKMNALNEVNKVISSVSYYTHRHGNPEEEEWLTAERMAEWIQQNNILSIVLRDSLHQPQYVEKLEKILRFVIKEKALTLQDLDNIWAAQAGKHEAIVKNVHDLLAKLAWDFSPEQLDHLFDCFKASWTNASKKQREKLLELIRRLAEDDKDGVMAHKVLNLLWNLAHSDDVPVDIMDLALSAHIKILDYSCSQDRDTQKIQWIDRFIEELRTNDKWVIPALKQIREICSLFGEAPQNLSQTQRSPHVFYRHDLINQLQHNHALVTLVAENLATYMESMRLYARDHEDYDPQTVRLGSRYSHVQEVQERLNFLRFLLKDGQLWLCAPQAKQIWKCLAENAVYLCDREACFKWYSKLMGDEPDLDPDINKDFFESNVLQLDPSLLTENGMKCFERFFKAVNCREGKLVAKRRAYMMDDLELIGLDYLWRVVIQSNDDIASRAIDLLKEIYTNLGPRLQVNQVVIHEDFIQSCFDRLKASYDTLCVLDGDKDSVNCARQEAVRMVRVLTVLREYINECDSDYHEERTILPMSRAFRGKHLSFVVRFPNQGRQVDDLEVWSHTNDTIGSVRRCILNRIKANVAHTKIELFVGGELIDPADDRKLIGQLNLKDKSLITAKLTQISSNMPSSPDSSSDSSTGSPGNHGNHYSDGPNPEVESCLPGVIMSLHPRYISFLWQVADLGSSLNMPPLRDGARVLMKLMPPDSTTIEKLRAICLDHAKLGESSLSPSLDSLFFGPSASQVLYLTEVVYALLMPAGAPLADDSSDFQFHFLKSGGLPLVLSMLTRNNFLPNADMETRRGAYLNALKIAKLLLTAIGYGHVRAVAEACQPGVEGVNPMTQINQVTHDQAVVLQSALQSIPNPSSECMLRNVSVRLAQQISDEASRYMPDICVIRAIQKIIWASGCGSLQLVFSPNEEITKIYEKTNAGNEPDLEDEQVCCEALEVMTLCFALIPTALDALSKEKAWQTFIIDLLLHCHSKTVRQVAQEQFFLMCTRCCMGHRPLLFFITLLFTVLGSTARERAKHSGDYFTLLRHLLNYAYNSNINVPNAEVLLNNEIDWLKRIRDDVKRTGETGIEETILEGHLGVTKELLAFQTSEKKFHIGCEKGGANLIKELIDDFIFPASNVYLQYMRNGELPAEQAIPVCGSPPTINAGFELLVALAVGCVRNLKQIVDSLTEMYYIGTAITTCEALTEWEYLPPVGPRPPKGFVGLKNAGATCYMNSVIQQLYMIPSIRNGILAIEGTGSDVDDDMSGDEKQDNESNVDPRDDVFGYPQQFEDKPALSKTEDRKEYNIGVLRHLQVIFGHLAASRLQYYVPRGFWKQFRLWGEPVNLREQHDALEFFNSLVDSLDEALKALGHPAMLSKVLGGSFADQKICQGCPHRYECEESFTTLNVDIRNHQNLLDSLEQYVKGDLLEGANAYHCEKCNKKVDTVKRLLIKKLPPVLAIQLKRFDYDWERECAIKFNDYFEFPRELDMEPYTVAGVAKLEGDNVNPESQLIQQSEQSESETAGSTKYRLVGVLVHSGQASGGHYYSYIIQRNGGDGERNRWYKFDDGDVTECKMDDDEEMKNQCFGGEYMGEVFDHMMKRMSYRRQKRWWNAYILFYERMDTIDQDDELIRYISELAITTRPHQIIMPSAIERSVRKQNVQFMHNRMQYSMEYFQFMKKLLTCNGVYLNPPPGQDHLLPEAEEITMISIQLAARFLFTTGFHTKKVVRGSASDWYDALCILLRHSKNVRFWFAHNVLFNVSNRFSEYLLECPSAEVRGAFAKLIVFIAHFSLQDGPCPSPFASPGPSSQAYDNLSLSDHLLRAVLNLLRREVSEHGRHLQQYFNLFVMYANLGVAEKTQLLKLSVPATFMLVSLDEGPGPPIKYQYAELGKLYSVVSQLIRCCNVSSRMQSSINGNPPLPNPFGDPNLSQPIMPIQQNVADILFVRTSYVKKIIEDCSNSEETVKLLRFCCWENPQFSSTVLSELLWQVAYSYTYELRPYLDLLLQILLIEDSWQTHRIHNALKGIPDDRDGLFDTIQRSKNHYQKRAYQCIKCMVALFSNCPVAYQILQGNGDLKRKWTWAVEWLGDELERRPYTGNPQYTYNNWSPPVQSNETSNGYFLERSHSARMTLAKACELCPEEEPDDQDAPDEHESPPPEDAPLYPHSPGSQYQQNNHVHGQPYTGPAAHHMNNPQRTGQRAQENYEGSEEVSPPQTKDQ
Chain of Ubiquitin thioesterase OTUB2 (Q96DC9 whole entry, the tested form may be a part): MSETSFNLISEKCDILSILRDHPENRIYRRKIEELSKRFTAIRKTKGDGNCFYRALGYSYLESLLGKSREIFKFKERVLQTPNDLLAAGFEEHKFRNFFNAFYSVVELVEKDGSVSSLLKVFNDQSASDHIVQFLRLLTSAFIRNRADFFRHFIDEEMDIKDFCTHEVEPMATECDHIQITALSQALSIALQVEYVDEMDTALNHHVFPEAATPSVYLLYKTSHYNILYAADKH
Chain of Ubiquitin carboxyl-terminal hydrolase 7 (Q93009 whole entry, the tested form may be a part): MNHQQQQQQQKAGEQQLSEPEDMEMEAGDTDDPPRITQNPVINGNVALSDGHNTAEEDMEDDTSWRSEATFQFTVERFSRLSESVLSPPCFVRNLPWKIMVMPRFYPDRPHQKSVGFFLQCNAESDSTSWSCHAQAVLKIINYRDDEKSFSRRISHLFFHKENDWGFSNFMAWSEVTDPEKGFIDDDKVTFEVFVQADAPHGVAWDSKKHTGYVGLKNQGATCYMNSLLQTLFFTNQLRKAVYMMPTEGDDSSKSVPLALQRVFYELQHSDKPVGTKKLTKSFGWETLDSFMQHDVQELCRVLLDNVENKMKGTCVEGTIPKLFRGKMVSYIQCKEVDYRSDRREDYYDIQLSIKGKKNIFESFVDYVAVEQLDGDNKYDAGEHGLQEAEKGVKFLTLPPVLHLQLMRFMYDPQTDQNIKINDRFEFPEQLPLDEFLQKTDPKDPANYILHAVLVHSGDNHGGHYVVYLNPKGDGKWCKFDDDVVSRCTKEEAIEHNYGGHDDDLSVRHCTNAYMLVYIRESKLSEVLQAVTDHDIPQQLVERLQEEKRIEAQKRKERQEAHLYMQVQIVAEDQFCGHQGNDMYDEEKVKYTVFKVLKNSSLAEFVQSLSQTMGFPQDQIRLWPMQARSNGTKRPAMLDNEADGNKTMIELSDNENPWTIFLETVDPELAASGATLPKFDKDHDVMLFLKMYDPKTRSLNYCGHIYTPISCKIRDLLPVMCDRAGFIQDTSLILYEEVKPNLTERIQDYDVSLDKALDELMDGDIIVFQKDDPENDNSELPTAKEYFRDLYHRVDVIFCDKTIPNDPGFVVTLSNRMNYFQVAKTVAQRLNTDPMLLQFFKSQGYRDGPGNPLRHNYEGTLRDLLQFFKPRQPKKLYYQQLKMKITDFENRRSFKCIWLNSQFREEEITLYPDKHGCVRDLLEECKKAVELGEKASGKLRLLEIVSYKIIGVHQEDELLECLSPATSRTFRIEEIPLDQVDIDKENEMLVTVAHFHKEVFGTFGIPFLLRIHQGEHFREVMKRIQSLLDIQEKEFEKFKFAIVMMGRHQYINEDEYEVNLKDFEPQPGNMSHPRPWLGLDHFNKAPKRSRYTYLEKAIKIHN
Chain of Josephin-2 (Q8TAC2 whole entry): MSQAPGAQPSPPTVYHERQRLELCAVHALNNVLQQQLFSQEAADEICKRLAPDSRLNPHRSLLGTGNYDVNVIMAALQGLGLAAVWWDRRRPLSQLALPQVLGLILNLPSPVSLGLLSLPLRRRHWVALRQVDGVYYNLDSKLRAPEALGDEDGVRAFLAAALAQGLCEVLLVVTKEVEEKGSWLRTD
Chain of Ubiquitin carboxyl-terminal hydrolase 27 (A6NNY8 whole entry, the tested form may be a part): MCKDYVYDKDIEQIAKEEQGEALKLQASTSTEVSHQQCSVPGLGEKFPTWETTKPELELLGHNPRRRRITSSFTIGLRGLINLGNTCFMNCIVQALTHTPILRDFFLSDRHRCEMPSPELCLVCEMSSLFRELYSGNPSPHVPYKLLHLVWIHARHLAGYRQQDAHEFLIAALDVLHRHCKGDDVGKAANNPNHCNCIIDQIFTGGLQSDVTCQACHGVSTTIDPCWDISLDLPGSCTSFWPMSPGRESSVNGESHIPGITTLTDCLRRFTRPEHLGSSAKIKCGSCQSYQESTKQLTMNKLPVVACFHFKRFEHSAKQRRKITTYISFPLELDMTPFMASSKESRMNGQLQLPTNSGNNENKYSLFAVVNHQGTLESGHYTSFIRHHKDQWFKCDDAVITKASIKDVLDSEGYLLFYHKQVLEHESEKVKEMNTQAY
Chain of Ubiquitin carboxyl-terminal hydrolase isozyme L1 (P09936 whole entry, canonical isoform): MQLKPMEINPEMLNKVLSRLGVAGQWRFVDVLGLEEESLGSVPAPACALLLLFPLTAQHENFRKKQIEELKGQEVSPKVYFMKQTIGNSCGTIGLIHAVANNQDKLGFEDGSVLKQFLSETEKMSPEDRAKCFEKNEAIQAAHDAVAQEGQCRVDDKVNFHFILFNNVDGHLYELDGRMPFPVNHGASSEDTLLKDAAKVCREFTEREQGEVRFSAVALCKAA

In the case of `Cc1cc(Cl)cc(-c2ccnc3cc(CN4C(=O)C5C(C4=O)C5(C)C)sc23)c1O[C@@H]1CCNC[C@@H]1C` (some centres undefined), the IC50 [1] is reported as greater than 10 µM, the IC50 [2] is reported as greater than 10 µM and the IC50 [3] is reported as greater than 10 µM. For the same compound, the IC50 (AMSH-like protease) was greater than 10 µM, the IC50 (Deubiquitinase OTUD6B) was greater than 10 µM and the IC50 [4] was greater than 10 µM. The IC50 [5] was greater than 10 µM, the IC50 (Ataxin-3) was greater than 10 µM and the IC50 (Josephin-2) was greater than 10 µM. The INH (Cytochrome P450 3A4) was 6.2 µM, the IC50 [6] was greater than 10 µM and the IC50 [7] was greater than 10 µM. It also gave an IC50 [8] greater than 10 µM, a Ratio IC50 (Homo sapiens) greater than 50000 and an IC50 [9] of 0.00018 µM. For the same compound, the IC50 [10] was greater than 10 µM, the IC50 [11] was greater than 10 µM and the IC50 [12] was greater than 10 µM. It also gave an IC50 [13] greater than 10 µM.
